Data reported in US20260306490A1, “PIM1 INHIBITOR FOR TREATING MYELOPROLIFERATIVE NEOPLASMS” (Sumitomo Pharma America, Inc., priority 2022, published 2026).

How the values were obtained:
[1] = tested on: human erythroid progenitors (CFU-E, BFU-E); assay: Colony forming cell assay, human erythroid progenitor (CFU-E, BFU-E) proliferation; type: cell-based; conditions: 336 h, single agent, 14 days, CFU-E and BFU-E
Procedure: Clonogenic progenitors of human erythroid (CFU-E, BFU-E), granulocyte-monocyte (CFU-GM), and multipotential (CFU-GEMM) lineages were assessed in a semi-solid methylcellulose-based media formulation containing rhIL-3 (10 ng/mL), rhGM-SCF (10 ng/mL), rhSCF (50 ng/mL), and Epo (3 U/mL).
(§1) In addition, 5-FU was evaluated at 1.0, 0.1 and 0.01 μg/mL as a positive control for toxicity.
(§2) Normal human bone marrow light density cells (lot #0210901), derived from normal bone marrow, (Lonza, Maryland) and qualified at ReachBio, were stored at −152° C. until required for the assay. On the day of the experiment, the cells were thawed rapidly, diluted in 10 mL of Iscove's modified Dulbecco's medium containing 10% fetal bovine serum (IMDM+10% FBS) and washed by centrifugation (approximately 1500 r.p.m. for 10 minutes at room temperature). The supernatant was discarded and the cell pellets were resuspended in a known volume of IMDM+10% FBS. A cell count (3% glacial acetic acid) and viability assessment (trypan blue exclusion test) was performed for the bone marrow sample.
Clonogenic progenitors of human megakaryocyte (CFU-Mk) were assessed in a collagen-based media formulation containing rhIL-3 (10 ng/mL), rhIL-6 (10 ng/mL), and Tpo (50 ng/mL). Clonogenic progenitors of the human erythroid (CFU-E and BFU-E), myeloid (CFU-GM), and megakaryocyte (CFU-Mk) lineages were set up in the media formulations described above. Individually, the test compounds were added to the medium to give the final desired concentrations (10, 3.33, 1, 0.333, 0.1, 0.0333, 0.01 and 0.00333 μM). […]
Human myeloid and erythroid progenitor assays were initiated at 1.2×10^4 cells per culture (lot #0210921) and the human megakaryocyte assays were initiated at 1.2×10^5 cells per culture (lot #0210921). Following 14 days in culture, erythroid and myeloid colonies were assessed microscopically in situ and scored by trained personnel. […] The colonies were assessed microscopically and scored by trained personnel and divided into the following categories based on size: CFU-Mk (3-20), CFU-Mk (21-49), and CFU-Mk (≥50).
Statistical analysis: The mean±standard deviation of three replicate cultures was calculated for both erythroid and myeloid progenitors. […]
Erythroid (CFU-E and BFU-E) and myeloid (CFU-GM) colony enumeration was performed by trained personnel. In addition, the distribution of colony types as well as general colony and cellular morphology was analyzed. The variance in colony number detected in replicate cultures was representative of the historical coefficient of variation for colony enumeration using these types of assays. The number and distribution of colonies detected in the solvent control (0.1% DMSO for single agents) was no different from the standard control (containing no compound and no DMSO). […]

[2] = tested on: human megakaryocyte progenitors (CFU-Mk); assay: Colony forming cell assay, human megakaryocyte progenitor (CFU-Mk) proliferation; type: cell-based; conditions: Homo sapiens; single agent; read-out: IC50, total CFU-Mk (megakaryocyte progenitor proliferation)
Procedure: as §1, §2
Clonogenic progenitors of human megakaryocyte (CFU-Mk) were assessed in a collagen-based media formulation containing rhIL-3 (10 ng/mL), rhIL-6 (10 ng/mL), and Tpo (50 ng/mL). Clonogenic progenitors of the human erythroid (CFU-E and BFU-E), myeloid (CFU-GM), and megakaryocyte (CFU-Mk) lineages were set up in the media formulations described above. Individually, the test compounds were added to the medium to give the final desired concentrations (10, 3.33, 1, 0.333, 0.1, 0.0333, 0.01 and 0.00333 μM). […] Solvent control cultures (containing no compound but 0.1% DMSO) as well as standard controls (containing no compound and no DMSO) were also initiated. Once introduced into the matrices, the tubes were vortexed to ensure an equal distribution throughout.
Human myeloid and erythroid progenitor assays were initiated at 1.2×10^4 cells per culture (lot #0210921) and the human megakaryocyte assays were initiated at 1.2×10^5 cells per culture (lot #0210921). Following 14 days in culture, erythroid and myeloid colonies were assessed microscopically in situ and scored by trained personnel. The colonies were divided into the following categories based on size and morphology: CFU-E, BFU-E, CFU-GM, and CFU-GEMM. The human megakaryocyte cultures were transferred from the 35 mm dishes to labeled glass slides, fixed with methanol/acetone fixative, and then stained with anti-human CD41 antibody and an alkaline phosphate detection system according to manufacturers' instructions. The colonies were assessed microscopically and scored by trained personnel and divided into the following categories based on size: CFU-Mk (3-20), CFU-Mk (21-49), and CFU-Mk (≥50).
Statistical analysis: The mean±standard deviation of three replicate cultures was calculated for both erythroid and myeloid progenitors. Two-tailed standard t-tests were performed to assess if there was a difference in the number of colonies generated between solvent control and treated cultures. Due to the potential subjectivity of colony enumeration, a p value of less than 0.01 is deemed significant. To calculate the concentration of 50% inhibition of colony growth (IC50) for each compound, a dose response curve was generated plotting the log of the compound concentration versus the percentage of control colony growth using GraphPad Prism 9 software.
Other than the test compounds being combined, the only change from the method in Example 1 was a 0.2% DMSO solvent control instead of 0.1% DMSO. The results are provided in FIGS. 2A-4C (FIGS. 2A-2C are human megakaryocytes (CFU-MK), FIGS. 3A-3C are human erythroid (CFU-E, BFU-E), and FIGS. 4A-4C are human granulocyte-monocyte (CFU-GM).

PIM1 = conditions: read-out: Preclinical IC50, PIM1; cited from earlier work

CC(C)(O)[C@H]1CC[C@H](Nc2ccc3ncc(-c4cccc(C(F)(F)F)c4)n3n2)CC1 [Compound (1)]
IC50 [1]: 4250 nM
IC50 [2]: 1560 nM
IC50 (PIM1): 5 nM
